Test results from patent publication US20130156857A1, “Pharmaceutical Compositions Containing Diacerein” (TWI BIOTECHNOLOGY, INC., priority 2008, published 2013).
In brackets after ≈: the same amount, converted by molar mass. Read-outs that look alike come from different tables or passages of the source. Blank lines part the entries; values can stand above or below the compound they belong to.

How the values were obtained:
[1] = in vivo; cited from earlier work
[2] = cited from earlier work
[3] = Solubility and stability pH profile of diacerein at ambient temperature for 48 hours; format: physicochemical; settings: for Proportion of Diacerein and its degradants: Diacerein / solubility at 48 h: 48 hours; for solubility at 48 h: thermodynamic from solid, read-out: Total solubility
Excerpt: (§1) The tables below indicate the solubility and stability of diacerein in buffer solutions with different pH values. […] The degradation products including rhein increase at a pH above 5. The poor stability of diacerein in the intestinal environment may result in incomplete absorption and cause poor and variable bioavailability. Moreover, one of the increased degradants in the intestinal environment, rhein, has been suspected to be a major factor in stimulating colon mucosa and results in diarrhea. Accordingly, methods to stabilize diacerein during gastro-intestinal absorption might improve its bioavailability as well as the side effect of diarrhea. The stabilization methods for use with diacerein may include the addition of acidifying or buffering agents or complexation with cyclodextrins.

[4] = cited from earlier work; remark: listed apart in the source
[5] = cited from earlier work; remark: listed apart in the source
[6] = Solubility and stability of diacerein at ambient temperature for one hour; format: physicochemical
Excerpt: as §1

Compound: O=C(O)c1cc(O)c2c(c1)C(=O)c1cccc(O)c1C2=O [Rhein]
conjugated in the liver to rhein glucuronide [1]: 60% | conjugated in the liver to rhein sulfate [1]: 20% | eliminated by the renal route [1]: 20%

Proportion of Diacerein and its degradants: Diacerein ([3]; 0.01N HCl, final pH 1.98, ambient temperature): 100% | Proportion of Diacerein and its degradants: Diacerein ([3]; 50 mM NaH2PO4, final pH 3.03, ambient temperature): 100% | Proportion of Diacerein and its degradants: Diacerein ([3]; 50 mM NaH2PO4, final pH 4.17, ambient temperature): 100% | Proportion of Diacerein and its degradants: Diacerein ([3]; 50 mM NaH2PO4, final pH 5.04, ambient temperature): 60% | Proportion of Diacerein and its degradants: Diacerein ([3]; 50 mM NaH2PO4, final pH 5.97, ambient temperature): 77% | Proportion of Diacerein and its degradants: Diacerein ([3]; 50 mM NaH2PO4, final pH 6.55, ambient temperature): 45% | Proportion of Diacerein and its degradants: Diacerein ([3]; 50 mM NaH2PO4, final pH 6.70, ambient temperature): 34% | solubility at 48 h ([3]; 50 mM NaH2PO4 buffer, aqueous buffer, 50 mM NaH2PO4, final pH 3.03, ambient temperature): 0.35 µg/mL (≈ 0.95 µM) | solubility at 48 h ([3]; 50 mM NaH2PO4 buffer, aqueous buffer, 50 mM NaH2PO4, final pH 4.17, ambient temperature): 0.43 µg/mL (≈ 1.17 µM) | Proportion of Diacerein and its degradants: Diacerein ([3]; 0.1N HCl, final pH 1.17, ambient temperature): 100% | Proportion of Diacerein and its degradants: Diacerein ([3]; Water, final pH 5.79, ambient temperature): 90% | solubility at 48 h ([3]; buffer solution (0.01N HCl), simulated gastric fluid, 0.01N HCl, final pH 1.98, ambient temperature): 0.15 µg/mL (≈ 0.407 µM) | solubility in buffer solution ([3]; pH below 4.17): relatively low | stability in buffer solution ([3]; pH below 4.17): stable | solubility at 48 h ([3]; simulated gastric fluid, 0.1N HCl, final pH 1.17, ambient temperature): 0.17 µg/mL (≈ 0.462 µM) | Proportion of Diacerein and its degradants: Diacerein ([6]; final pH 6.55*): 90% | Proportion of Diacerein and its degradants: Diacerein ([6]; final pH 6.70*): 83%
Compound: CC(=O)Oc1cccc2c1C(=O)c1c(OC(C)=O)cc(C(=O)O)cc1C2=O [Diacerein, 4,5-bis(acetyloxy)-9,10-dioxo-2-anthracene carboxylic acid]
solubility in water [2]: practically insoluble | diarrhea or soft stools occurred in the patients ([4]; 3-year clinical study, diacerein twice a day with meals): up to 30% | severity of diarrhea ([4]; occurs within the first two weeks of treatment): mild-to-moderate | conversion before reaching the systemic circulation [1]: entirely converted into rhein | Oral bioavailability [5]: 35-56% | bioavailability with feeding ([5]; oral, feeding): 43-70%
